The source of these data is paper PMC5444442, “Flagellin peptide flg22 gains access to long-distance trafficking in Arabidopsis via its receptor, FLS2” (Journal of Experimental Botany, 2017).

Peptide text beside a SMILES is read from it.

Series [1] concerns Arabidopsis plants. The series is described as follows: Long-distance transport after surface application of fluorescent peptide. The conditions noted are these: 1 d. It is filed as in vivo, Arabidopsis thaliana. As for the experimental part:
We applied 10–20 μl of 5 μM TAMRA–flg22 (without or with inhibitors: 50 μM MG132 or 50 mM BDM) to a filter paper disc placed on the adaxial side of one leaf of in vitro-grown Arabidopsis plants and distal tissues were imaged by confocal microscopy after 1 d. For experiments with mixed peptides, 5 μM TAMRA–flg22 + 10 μM FAM–scrambled peptides were used.
[^14C]sucrose radioactivity was quantified in a scintillation counter.

Series [2] addresses T1, FLS2 (Arabidopsis thaliana, UniProt Q9FL28).
T1 construct: treating Col and fls2 leaf discs (prefloated on water overnight) with 1 μM peptide and measuring ROS induction; from tissue; host or cells: Arabidopsis thaliana Col leaf discs (fls2 mutant as negative control)
As to the kind of experiment: ROS assay in leaf discs. It is filed as cell-based. The conditions noted are these: flg22-induced ROS; Supplementary Fig. S1B. As for the experimental part: Bioactivity was verified for each batch of peptides by treating Col and fls2 leaf discs (prefloated on water overnight) with 1 μM peptide and measuring ROS induction as described in ([Tateda et al., 2014]).

The subject of series [3] is Arabidopsis leaf discs. As to the kind of experiment: Subcellular localization, uptake and accumulation of flg22 in leaf discs. The conditions noted are these: Col leaf discs. It is filed as cell-based, Arabidopsis thaliana. As for the experimental part:
Leaf discs were floated (abaxial side down) on 1–5 μM TAMRA–flg22 or 5–10 μM FAM–flg22 solution (in water) at room temperature for the indicated time (lower concentrations were used for overnight treatments). Inhibitors that affect endocytosis, MG132 (Sigma-Aldrich, 50 μM) or 2,3-butanedione monoxime (BDM; Sigma-Aldrich, 50 mM) were added at the same time as the peptides. FM4-64 (Invitrogen, 6–8 μM) or 2′,7′-bis-(2-carboxyethyl)-5-(and-6)-carboxyfluorescein (BCECF)-AM (cleaved by an endogenous plant esterase to BCECF, Invitrogen, 20–40 μM) mixed with peptide solution was vacuum infiltrated for 2 min into leaf discs ([Kang et al., 2014]) prior to incubation (floating on peptide/dye solution) for the indicated time. In some experiments FAM–Y-flg22 was used with results similar to FAM–flg22.
For experiments with mixed peptides, leaf discs were floated for the indicated time on 2 μM FAM–flg22, FAM–scrambled peptide or fluorescein mixed with 1 μM TAMRA–flg22. In all experiments, leaf discs were washed after treatment by gently shaking for several minutes in water and the abaxial side was imaged by confocal or epifluorescence microscopy (see ‘Microscopy’). Fluorescence intensity profiles were generated with ImageJ, as in [Spallek et al., (2013)] and [Bozkurt et al. (2015)] (see ‘Data analysis’).
Confocal images were obtained using a Zeiss LSM710 laser-scanning confocal microscope (Zeiss, Germany) as described in [Kang et al. (2014)]. Fluorescence was visualized as follows: GFP/FAM/fluorescein/BCECF excitation (ex) 488 nm/emission (em) 495–545 nm; TAMRA ex 561 nm/em 566–620 nm; FM4-64: ex 561 nm/em 686–758 nm. Green and red fluorescence was acquired for the same field using a sequential acquisition mode.
Fluorescence intensity profiles were generated with ImageJ (http://rsb.info.nih.gov/ij, last accessed 6 April 2017) using RGB Profiler and Color Profiler. Fluorescent puncta were manually counted in 20 μm × 20 μm confocal image areas as in [Irani et al. (2012)] and [Chaparro-Garcia et al., (2015)] and shown as a fraction ([Irani et al., 2012]; [Choi et al., 2013]). […]

Series [4] deals with Arabidopsis FLS2. The following applies: ref Bauer et al., 2001; cited from earlier work. From the text:
The fate of flg22 inside plant cells is similar to that of Potato mop-top and Cauliflower mosaic virus movement proteins, which are endocytosed and delivered to pre-vacuoles/late endosomal structures ([Haupt et al., 2005]; [Carluccio et al., 2014]). Endosomal trafficking of the movement proteins is essential for the spread of viruses to distal tissues, as is endocytosis of flg22 for efficient peptide movement to systemic tissue, although ...

T1 sequence (Q9FL28 24-1173): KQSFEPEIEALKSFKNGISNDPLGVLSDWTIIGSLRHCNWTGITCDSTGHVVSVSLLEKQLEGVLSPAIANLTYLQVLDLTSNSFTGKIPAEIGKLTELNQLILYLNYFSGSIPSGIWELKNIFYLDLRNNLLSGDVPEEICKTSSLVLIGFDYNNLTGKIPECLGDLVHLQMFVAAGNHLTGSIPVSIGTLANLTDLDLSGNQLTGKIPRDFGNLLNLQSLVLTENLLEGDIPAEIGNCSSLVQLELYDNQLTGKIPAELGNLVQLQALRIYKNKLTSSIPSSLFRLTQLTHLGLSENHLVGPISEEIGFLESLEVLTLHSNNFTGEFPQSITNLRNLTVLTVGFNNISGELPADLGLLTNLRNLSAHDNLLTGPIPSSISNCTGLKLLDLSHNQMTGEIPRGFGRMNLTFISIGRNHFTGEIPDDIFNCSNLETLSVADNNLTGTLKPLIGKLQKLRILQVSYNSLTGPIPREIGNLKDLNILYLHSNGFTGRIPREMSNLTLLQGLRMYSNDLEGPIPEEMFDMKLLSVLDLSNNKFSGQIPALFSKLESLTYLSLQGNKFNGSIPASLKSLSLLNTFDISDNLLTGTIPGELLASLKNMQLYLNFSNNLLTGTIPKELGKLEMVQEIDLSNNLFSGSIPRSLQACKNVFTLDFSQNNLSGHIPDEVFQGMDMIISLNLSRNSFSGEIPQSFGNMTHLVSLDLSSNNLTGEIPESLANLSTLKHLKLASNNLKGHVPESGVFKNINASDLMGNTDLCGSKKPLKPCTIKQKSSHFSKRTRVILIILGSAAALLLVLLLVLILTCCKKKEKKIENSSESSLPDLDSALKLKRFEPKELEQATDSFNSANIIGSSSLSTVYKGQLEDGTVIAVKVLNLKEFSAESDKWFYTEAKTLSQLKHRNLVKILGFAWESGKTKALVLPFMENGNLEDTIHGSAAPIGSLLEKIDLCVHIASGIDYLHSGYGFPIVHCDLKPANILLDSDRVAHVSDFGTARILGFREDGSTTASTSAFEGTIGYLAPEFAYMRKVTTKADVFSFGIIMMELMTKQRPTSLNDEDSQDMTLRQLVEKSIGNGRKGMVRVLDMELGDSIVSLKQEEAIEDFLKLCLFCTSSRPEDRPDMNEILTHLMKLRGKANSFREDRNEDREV
T1 sequence (Q94F62 26-615 partner): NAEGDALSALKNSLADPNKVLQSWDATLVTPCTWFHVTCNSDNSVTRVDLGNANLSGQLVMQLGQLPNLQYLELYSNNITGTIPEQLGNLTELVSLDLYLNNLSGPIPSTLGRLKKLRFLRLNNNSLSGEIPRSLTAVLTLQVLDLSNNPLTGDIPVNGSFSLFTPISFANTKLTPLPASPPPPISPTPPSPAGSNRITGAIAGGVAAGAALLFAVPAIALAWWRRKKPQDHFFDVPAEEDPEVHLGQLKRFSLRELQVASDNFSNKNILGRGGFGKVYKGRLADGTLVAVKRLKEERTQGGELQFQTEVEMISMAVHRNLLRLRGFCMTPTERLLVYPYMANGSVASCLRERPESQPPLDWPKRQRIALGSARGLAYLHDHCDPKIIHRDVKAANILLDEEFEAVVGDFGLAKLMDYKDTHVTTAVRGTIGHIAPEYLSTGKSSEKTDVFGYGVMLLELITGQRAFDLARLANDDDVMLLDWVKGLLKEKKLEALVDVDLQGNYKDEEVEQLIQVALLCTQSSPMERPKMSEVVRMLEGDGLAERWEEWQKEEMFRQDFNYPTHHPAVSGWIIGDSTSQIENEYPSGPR

With `CC(=O)C(C)=NO` [BDM, 2,3-butanedione monoxime, reference compound], the “effect of inhibitor on long-distance movement of TAMRA–flg22” value in series [1] (Col, 5 μM TAMRA–flg22 with 50 μM MG132 or 50 mM BDM on filter paper disc) is “prevented”. Moreover, in series [2], the “effect of endocytosis inhibitor on defense activation measured by ROS production” value is “impaired defense activation”. Besides, the “effect of inhibitor on initial binding/uptake of TAMRA–flg22” value in series [3] (5 μM TAMRA–flg22 with 50 μM MG132 or 50 mM BDM added simultaneously, 1–2 h) is listed as “did not prevent initial peptide binding/uptake”. In addition, the “effect of inhibitor on overnight accumulation of TAMRA–flg22 in vacuoles” value in series [3] (1–2 μM TAMRA–flg22 with 50 μM MG132 or 50 mM BDM, overnight) was “did not accumulate in vacuoles”.

On to `CC[C@H](C)[C@H](NC(=O)[C@H](CCC(N)=O)NC(=O)[C@H](CC(C)C)NC(=O)CNC(=O)[C@H](C)NC(=O)[C@H](C)NC(=O)[C@H](CC(=O)O)NC(=O)[C@H](CC(=O)O)NC(=O)[C@H](CCCCN)NC(=O)[C@H](C)NC(=O)[C@H](CO)NC(=O)[C@H](CC(N)=O)NC(=O)[C@@H](NC(=O)[C@H](CCCNC(=N)N)NC(=O)[C@H](CO)NC(=O)CNC(=O)[C@@H](NC(=O)[C@H](CO)NC(=O)[C@H](CC(C)C)NC(=O)[C@H](CCCNC(=N)N)NC(=O)[C@@H](N)CCC(N)=O)[C@@H](C)O)[C@@H](C)CC)C(=O)N[C@@H](C)C(=O)O` [flg22] (H-QRLSTGSRINSAKDDAAGLQIA-OH), for which, in series [1] (fls2 and bak1 mutants versus Col, 5 μM on filter paper disc, confocal, P<0.0002, n≥7), the “amount detected in distal organs” value is “significantly less”. The “reversibility of binding to microsomal membranes” value in series [4] is “reversible”.
